How the values were obtained:
Experiment in all cases: relative viability (nuclei count vs DMSO), 5 days (fraction); higher = more cells survive
IPA-3 + Trametinib = compound: C1=CC=C2C(=C1)C=CC(=C2SSC3=C(C=CC4=CC=CC=C43)O)O [IPA-3] + CC(=O)Nc1cccc(-n2c(=O)n(C3CC3)c(=O)c3c(Nc4ccc(I)cc4F)n(C)c(=O)c(C)c32)c1 [Trametinib] (partner 0.02 µM)
How it was run: (§1)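 Dosing by pin tool came one day after lung cancer cell lines were seeded in 1536-well plates, using either one drug or a fixed anchor-drug dose plus five library-drug doses (not always all listed) in √10 steps. After 5 days, nuclei were counted on 4× images. Relative viability is treated-well nuclei count divided by vehicle-well nuclei count, and values are medians of duplicate plates.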

IPA-3 + Pictilisib = compound: C1=CC=C2C(=C1)C=CC(=C2SSC3=C(C=CC4=CC=CC=C43)O)O [IPA-3] + CS(=O)(=O)N1CCN(Cc2cc3nc(-c4cccc5[nH]ncc45)nc(N4CCOCC4)c3s2)CC1 [Pictilisib] (partner 1 µM)
How it was run: as §1

Doramapimod + Linsitinib = compound: Cc1ccc(-n2nc(C(C)(C)C)cc2NC(=O)Nc2ccc(OCCN3CCOCC3)c3ccccc23)cc1 [Doramapimod] + C[C@]1(O)C[C@@H](c2nc(-c3ccc4ccc(-c5ccccc5)nc4c3)c3c(N)nccn32)C1 [Linsitinib] (partner 1 µM)
How it was run: as §1

RAF265 + Foretinib = compound: Cn1c(Nc2ccc(C(F)(F)F)cc2)nc2cc(Oc3ccnc(-c4ncc(C(F)(F)F)[nH]4)c3)ccc21 [RAF265] + COc1cc2c(Oc3ccc(NC(=O)C4(C(=O)Nc5ccc(F)cc5)CC4)cc3F)ccnc2cc1OCCCN1CCOCC1 [Foretinib] (partner 0.25 µM)
How it was run: as §1

UMC-11
relative viability (IPA-3 + Trametinib; first compound 0.2 µM): 0.804 | relative viability (IPA-3 + Trametinib; first compound 0.6325 µM): 0.666 | relative viability (IPA-3 + Trametinib; first compound 2 µM): 0.677 | relative viability (IPA-3 + Trametinib; first compound 6.325 µM): 0.6 | relative viability (IPA-3 + Trametinib; first compound 20 µM): 0.794 | relative viability (IPA-3 + Pictilisib; first compound 0.2 µM): 0.982 | relative viability (IPA-3 + Pictilisib; first compound 0.6325 µM): 0.815 | relative viability (IPA-3 + Pictilisib; first compound 2 µM): 0.776 | relative viability (IPA-3 + Pictilisib; first compound 6.325 µM): 0.665 | relative viability (IPA-3 + Pictilisib; first compound 20 µM): 0.763 | relative viability (Doramapimod + Linsitinib; first compound 0.02 µM): 0.946 | relative viability (Doramapimod + Linsitinib; first compound 0.06325 µM): 0.992 | relative viability (Doramapimod + Linsitinib; first compound 0.2 µM): 1.03 | relative viability (Doramapimod + Linsitinib; first compound 0.6325 µM): 1 | relative viability (Doramapimod + Linsitinib; first compound 2 µM): 0.718 | relative viability (RAF265 + Foretinib; first compound 0.01 µM): 1.02 | relative viability (RAF265 + Foretinib; first compound 0.03162 µM): 1.05 | relative viability (RAF265 + Foretinib; first compound 0.1 µM): 0.972 | relative viability (RAF265 + Foretinib; first compound 0.3162 µM): 0.992 | relative viability (RAF265 + Foretinib; first compound 1 µM): 0.926

— the supplement of paper PMC10307832
